Reference: US7253177B2, “Synthesis and antimalarial activity of pyrrolo[3,2-f]quinazoline-1,3-diamine derivatives” (United States of America as Represented by the Secretary of …, priority 2004, dated 2007)
In brackets after ≈: the same amount, converted by molar mass.

System: Plasmodium falciparum TM91C235 (Southeast Asia Isolates)
Test: In vitro antimalarial study, [3H]hypoxanthine uptake, TM91C235 clone
Format: cell-based
Procedure: B. Antimalarial Activities: (a). In Vitro Antimalarial Studies. The in vitro assays were conducted by using a modification of the semiautomated microdilution technique of Desjardins et al and Chulay et al.. Four P. falciparum malaria parasite clones, from CDC Indochina III (W-2), CDC Sierra Leone I (D-6), Southeast Asia Isolates (TM91C235) and RCS (Isolates from Brazil) were utilized in susceptibility testing. They were derived by direct visualization and micromanipulation from patient isolates. The W-2 clone is susceptible to mefloquine but resistant to chloroquine, sulfadoxine, pyrimethamine, and quinine, whereas the D-6 clone is naturally resistant to mefloquine but susceptible to chloroquine, sulfadoxine, pyrimethamine and quinine. Test compounds were initially dissolved in DMSO and diluted 400 fold in RPMI 1640 culture medium supplemented with 25 mM Hepes, 32 mM NaHCO3 and 10% Albumax I (Gibco BRL, Grand Island, N.Y.). These solutions were subsequently serially diluted two-fold with a Biomek 1000 (Beckman, Fullerton, Calif.) over 11 different concentrations. The parasites were exposed to serial dilutions of each compound for 48 hrs and incubated at 37° C. with 5% O2, 5% CO2 and 90% N2 prior to the addition of [^3H]hypoxanthine. After a further incubation of 18 hrs, parasite DNA was harvested from each microtiter well using Packard Filtermate 196 Harvester (Meriden, Conn.) onto glass filters. Uptake of [^3H]hypoxanthine was measured with a Packard Topcount Scintillation. Concentration-response data were analyzed by a non-linear regression logistic dose response model and the IC50 values (50% inhibitory concentrations) for each compound were calculated. (Table 3). (b). In Vivo Antimalarial Studies against P. berghei in mice: The in vivo efficacy of the artelinic acid analogs were determined in a modified Thompson test. This test measures the survivability of mice and parasitemia clearance following administration of drug on days 3-5 post infection. In brief, 5×10^6 P. berghei-infected erythrocytes (KBG-173 strain) were inoculated intraperitoneally to female mice that weighed 24-30 g. By day three post-infection, parasitemia ranged from 1.0-3.7%. Each drug, dissolved in 5% sodium bicarbonate, was administered PO twice daily from day 3-5 post-infection. Total doses for each drug ranged from 1.5-384 mg/kg with 8 mice included in each dosage group. The percent suppression of parasitemia in the treated mice compared to the untreated controls was determined for each test compound; the SD-50 (fifty percent suppression dose) and SD-90 were determined from a non-linear regression logistic dose response fit at day 6 parasitemia data. Survival of mice to day 60 post-infection was considered a cure (C). Compounds were considered active (A) when the survival time of the treated mice was greater than twice the control mice, i.e., 12-14 day (Table 4-5). (c). Sporozoite Induced Test Each compound is ground with a mortar & pestle and suspended in 0.5% hydroxyethylcellulose—0.1% Tween 80 for compounds to be administered PO and those given SC are suspended in peanut oil. Each compound is prepared at 3 different dose levels as requested by WRAIR. Compounds are administered either PO or SC to mice once 4 hr before inoculation of sporozoites. Four-week-old male CD-1 mice, purchased from Charles River and weighing 16-17 g, are placed 5 per cage and allowed to acclimate for 4 days before being treated and then inoculated with sporozoites. They are fed food and water ad-lib and maintained at 76° F. with 12 hr light and 12 hr darkness. The cages and water bottles are changed biweekly. The mice are weighed on Days 0, 3 and 6 then biweekly when blood films are taken. Plasmodium yoelii (17×) is used to infect mice that will be used to infect the mosquitoes. Mice are given a single dose of test compound 4 hr before being inoculated intraperitoneally with 2.5×10^5 sporozoites of Plasmodium yoelii on Day 0. […]

| SMILES | IC50 (Plasmodium falciparum, read-out: IC50 TM91C235) | IC50 TM91C235 (P. falciparum TM91C235 clone) |
| --- | --- | --- |
| CC(=O)N(C(C)=O)c1nc(N(C(C)=O)C(C)=O)c2c(ccc3c2ccn3Cc2ccccc2C(F)(F)F)n1 [Compound 3e, 1,3-Bis(diacetylamino)-7-(2-trifluoromethyl)benzyl-7H-pyrrolo[3,2-f]quinazoline] | 0.0845 ng/mL (≈ 0.161 nM) | – |
| CCOC(=O)Nc1nc(NC(=O)OCC)c2c(ccc3c2ccn3Cc2ccccc2C(F)(F)F)n1 [Compound 2b] | – | >250 ng/mL |
